In patent publication US9423396B2, “Bodipy structure fluorescence probes for diverse biological applications” (National University of Singapore, priority 2011, dated 2016):

Assay: Spectroscopic measurements (absorption, emission, quantum yield, extinction coefficient)
Assay type: physicochemical
[1] = absorption maximum, BDNCA library
[2] = difference of emission and absorption maxima
[3] = extinction coefficient, BDNCA library; in M-1 cm-1 (unit assumed)
[4] = fluorescence emission maximum, BDNCA library
[5] = BDNCA library, difference emission minus absorption
[6] = BDNCA library, extinction coefficient; in M-1 cm-1 (unit assumed)
[7] = BDNCA library, fluorescence emission

Row | SMILES | Abs [1] | Flu-Abs [2] | ε [3] | Flu [4] | Qunt. Yield (quantum yield, BDNCA library) | Qunt. Yield (BDNCA library) | Abs (BDNCA library, absorption) | Flu-Abs [5] | ε [6] | Flu [7]
1 | Cc1cc(/C=C/c2ccc(F)c(Oc3ccccc3)c2)n2c1C(c1ccc(NC(=O)CCl)cc1)=C1C=CC=[N+]1[B-]2(F)F [BDNCA-311] | 555 nm | 20 | 57,117 | 575 | 0.09 |  |  |  |  | 
2 | CC1=CC(/C=C/c2c(C)nn(C)c2C)=[N+]2C1=C(c1ccc(NC(=O)CCl)cc1)c1cccn1[B-]2(F)F [BDNCA-430] | 567 nm | 34 | 37,895 | 601 | 0.09 |  |  |  |  | 
3 | COc1ccc(/C=C/C2=[N+]3C(=C(c4ccc(NC(=O)CCl)cc4)c4cccn4[B-]3(F)F)C(C)=C2)cc1Cl [BDNCA-274] |  |  |  |  |  | 0.15 | 563 nm | 27 | 71,670 | 590
4 | CC1=CC(/C=C/c2ccc(-n3ccnc3)cc2)=[N+]2C1=C(c1ccc(NC(=O)CCl)cc1)c1cccn1[B-]2(F)F [BDNCA-8] |  |  |  |  |  | 0.04 | 562 nm | 20 | 29,108 | 582
5 | CC1=CC(/C=C/c2ccc(Cl)cc2)=[N+]2C1=C(c1ccc(NC(=O)CCl)cc1)c1cccn1[B-]2(F)F [BDNCA-12] |  |  |  |  |  | 0.10 | 557 nm | 19 | 49,428 | 576
6 | COc1cccc(/C=C/C2=[N+]3C(=C(c4ccc(NC(=O)CCl)cc4)c4cccn4[B-]3(F)F)C(C)=C2)c1Cl [BDNCA-281] |  |  |  |  |  | 0.14 | 556 nm | 20 | 79,908 | 576
7 | CC1=CC(/C=C/c2cc(Br)ccc2O)=[N+]2C1=C(c1ccc(NC(=O)CCl)cc1)c1cccn1[B-]2(F)F [BDNCA-73] |  |  |  |  |  | 0.04 | 564 nm | 21 | 27,185 | 585
8 | COc1ccccc1/C=C/c1cc(C)c2n1[B-](F)(F)[N+]1=CC=CC1=C2c1ccc(NC(=O)CCl)cc1 [BDNCA-198] |  |  |  |  |  | 0.15 | 561 nm | 26 | 76,064 | 587
9 | CC1=CC(/C=C/c2ccoc2)=[N+]2C1=C(c1ccc(NC(=O)CCl)cc1)c1cccn1[B-]2(F)F [BDNCA-71] |  |  |  |  |  | 0.05 | 550 nm | 20 | 43,661 | 570
10 | CC1=CC(/C=C/c2ccc(O)c([N+](=O)[O-])c2)=[N+]2C1=C(c1ccc(NC(=O)CCl)cc1)c1cccn1[B-]2(F)F [BDNCA-131] |  |  |  |  |  | weak | 643 nm |  | 18,124 | weak
11 | COc1ccc2c(OC)ccc(/C=C/C3=[N+]4C(=C(c5ccc(NC(=O)CCl)cc5)c5cccn5[B-]4(F)F)C(C)=C3)c2c1 [BDNCA-70] |  |  |  |  |  | 0.04 | 587 nm | 90 | 29,931 | 677
12 | Cc1cc(/C=C/c2ccc3c4c(cccc24)CC3)n2c1C(c1ccc(NC(=O)CCl)cc1)=C1C=CC=[N+]1[B-]2(F)F [BDNCA-89] |  |  |  |  |  | 0.08 | 580 nm | 54 | 33,501 | 634
13 | COc1cc(/C=C/C2=[N+]3C(=C(c4ccc(NC(=O)CCl)cc4)c4cccn4[B-]3(F)F)C(C)=C2)c(OCc2ccccc2)cc1OC [BDNCA-223] |  |  |  |  |  | weak | 583 nm |  | 59,863 | weak
14 | COc1ccc(/C=C/C2=[N+]3C(=C(c4ccc(NC(=O)CCl)cc4)c4cccn4[B-]3(F)F)C(C)=C2)cc1OC [BDNCA-62] |  |  |  |  |  | 0.08 | 570 nm | 48 | 38,169 | 618
15 | Cc1cc(/C=C/c2cc(OC(F)(F)F)ccc2O)n2c1C(c1ccc(NC(=O)CCl)cc1)=C1C=CC=[N+]1[B-]2(F)F [BDNCA-346] | 561 nm | 23 | 16,476 | 584 | 0.02 |  |  |  |  | 
16 | CC1=CC(/C=C/c2ccc(-c3ccc(Br)cc3)o2)=[N+]2C1=C(c1ccc(NC(=O)CCl)cc1)c1cccn1[B-]2(F)F [BDNCA-428] | 506 nm | 151 | 17,025 | 657 | 0.02 |  |  |  |  | 
17 | COc1ccc(/C=C/C2=[N+]3C(=C(c4ccc(NC(=O)CCl)cc4)c4cccn4[B-]3(F)F)C(C)=C2)c(OC)c1C [BDNCA-347] | 569 nm | 35 | 34,874 | 604 | 0.08 |  |  |  |  | 
18 | COc1ccc(/C=C/C2=[N+]3C(=C(c4ccc(NC(=O)CCl)cc4)c4cccn4[B-]3(F)F)C(C)=C2)cc1OCc1ccccc1 [BDNCA-7] |  |  |  |  |  | 0.19 | 570 nm | 46 | 87,872 | 616
19 | COc1ccc(Br)cc1/C=C/c1cc(C)c2n1[B-](F)(F)[N+]1=CC=CC1=C2c1ccc(NC(=O)CCl)cc1 [BDNCA-54] |  |  |  |  |  | 0.07 | 562 nm | 19 | 38,169 | 581

Row | SMILES | Abs [1] | Flu-Abs [2] | ε [3] | Flu [4] | Qunt. Yield (quantum yield, BDNCA library) | Qunt. Yield (BDNCA library) | Abs (BDNCA library, absorption) | Flu-Abs [5] | ε [6] | Flu [7]
20 | CCN(CC)c1ccc(/C=C/C2=[N+]3C(=C(c4ccc(NC(=O)CCl)cc4)c4cccn4[B-]3(F)F)C(C)=C2)cc1 [BDNCA-107] |  |  |  |  |  | weak | 624 nm |  | 56,018 | weak
21 | Cc1ccc(/C=C/c2cc(C)c3n2[B-](F)(F)[N+]2=CC=CC2=C3c2ccc(NC(=O)CCl)cc2)cc1 [BDNCA-208] |  |  |  |  |  | 0.12 | 558 nm | 23 | 64,805 | 581
22 | CC1=CC(/C=C/c2ccc(OCc3ccccc3)c(OCc3ccccc3)c2)=[N+]2C1=C(c1ccc(NC(=O)CCl)cc1)c1cccn1[B-]2(F)F [BDNCA-4] |  |  |  |  |  | 0.18 | 570 nm | 41 | 79,908 | 611
23 | CC1=CC(/C=C/c2c(Cl)ccc(C)c2F)=[N+]2C1=C(c1ccc(NC(=O)CCl)cc1)c1cccn1[B-]2(F)F [BDNCA-246] |  |  |  |  |  | 0.09 | 554 nm | 19 | 43,387 | 573
24 | CC1=CC(/C=C/c2cc(Cl)ccc2O)=[N+]2C1=C(c1ccc(NC(=O)CCl)cc1)c1cccn1[B-]2(F)F [BDNCA-121] |  |  |  |  |  | 0.06 | 564 nm | 21 | 39,817 | 585
25 | CC1=CC(/C=C/c2ccc(Oc3ccc(F)cc3)cc2)=[N+]2C1=C(c1ccc(NC(=O)CCl)cc1)c1cccn1[B-]2(F)F [BDNCA-322] | 561 nm | 27 | 67,826 | 588 | 0.14 |  |  |  |  | 
26 | CC1=CC(/C=C/c2cccc3ccccc23)=[N+]2C1=C(c1ccc(NC(=O)CCl)cc1)c1cccn1[B-]2(F)F [BDNCA-25] |  |  |  |  |  | 0.09 | 566 nm | 28 | 32,952 | 594
27 | Cc1cc(/C=C/c2cc(F)ccc2O)n2c1C(c1ccc(NC(=O)CCl)cc1)=C1C=CC=[N+]1[B-]2(F)F [BDNCA-318] | 564 nm | 25 | 18,398 | 589 | 0.02 |  |  |  |  | 
28 | CCCCN(CCCC)c1ccc(/C=C/C2=[N+]3C(=C(c4ccc(NC(=O)CCl)cc4)c4cccn4[B-]3(F)F)C(C)=C2)cc1 [BDNCA-17] |  |  |  |  |  | weak | 627 nm |  | 52,998 | weak
29 | CC1=CC(/C=C/c2ccc(C)c3ccccc23)=[N+]2C1=C(c1ccc(NC(=O)CCl)cc1)c1cccn1[B-]2(F)F [BDNCA-36] |  |  |  |  |  | 0.08 | 572 nm | 38 | 30,755 | 610
30 | COc1c(Br)cc(Br)cc1/C=C/C1=[N+]2C(=C(c3ccc(NC(=O)CCl)cc3)c3cccn3[B-]2(F)F)C(C)=C1 [BDNCA-241] |  |  |  |  |  | 0.09 | 558 nm | 20 | 48,879 | 578
31 | CC1=CC(/C=C/c2ccc(/C=C/c3ccccc3)cc2)=[N+]2C1=C(c1ccc(NC(=O)CCl)cc1)c1cccn1[B-]2(F)F [BDNCA-69] |  |  |  |  |  | 0.09 | 577 nm | 33 | 40,641 | 610
32 | CC1=CC(/C=C/c2c3ccccc3cc3ccccc23)=[N+]2C1=C(c1ccc(NC(=O)CCl)cc1)c1cccn1[B-]2(F)F [BDNCA-6] |  |  |  |  |  | weak | 536 nm |  | 41,465 | weak
33 | COc1ccc(/C=C/C2=[N+]3C(=C(c4ccc(NC(=O)CCl)cc4)c4cccn4[B-]3(F)F)C(C)=C2)cc1Br [BDNCA-260] |  |  |  |  |  | 0.19 | 564 nm | 27 | 86,499 | 591
34 | COc1ccc2ccccc2c1/C=C/C1=[N+]2C(=C(c3ccc(NC(=O)CCl)cc3)c3cccn3[B-]2(F)F)C(C)=C1 [BDNCA-61] |  |  |  |  |  | 0.08 | 581 nm | 46 | 33,776 | 627
35 | COc1ccc([N+](=O)[O-])cc1/C=C/C1=[N+]2C(=C(c3ccc(NC(=O)CCl)cc3)c3cccn3[B-]2(F)F)C(C)=C1 [BDNCA-250] |  |  |  |  |  | 0.12 | 559 nm | 22 | 53,547 | 581
36 | COc1cc(O)c(/C=C/C2=[N+]3C(=C(c4ccc(NC(=O)CCl)cc4)c4cccn4[B-]3(F)F)C(C)=C2)c(OC)c1 [BDNCA-366] | 579 nm | 50 | 38,444 | 629 | 0.02 |  |  |  |  | 
37 | CCOc1cc(/C=C/C2=[N+]3C(=C(c4ccc(NC(=O)CCl)cc4)c4cccn4[B-]3(F)F)C(C)=C2)ccc1O [BDNCA-397] | 573 nm | 40 | 38,444 | 613 | 0.01 |  |  |  |  | 
